Test results published in US20190119284A1, “ErbB Inhibitors and Uses Thereof” (The Regents of the University of California, priority 2016, published 2019).

Tests used:
IGF1R = IGF1R (Homo sapiens, UniProt P08069); test: Nanosyn in vitro kinase profiling: IGF1R; type: biochemical; conditions: for inhibition at 1 µM: compound at 1 μM
Method: (§1) This was confirmed by in vitro profiling against a panel of kinases, with compound 2 only showing potent inhibition of EGFR and Ab1 (Table 2).
(§2) In vitro Kinome Screen. In vitro profiling of compound 2 at 100 nM was conducted by Nanosyn.

PDK1 = target: T1, PDK1 (Homo sapiens, UniProt O15530); test: Nanosyn in vitro kinase profiling: PDK1; type: biochemical; conditions: for inhibition at 1 µM: compound at 1 μM
T1 sequence (O15530 1-556): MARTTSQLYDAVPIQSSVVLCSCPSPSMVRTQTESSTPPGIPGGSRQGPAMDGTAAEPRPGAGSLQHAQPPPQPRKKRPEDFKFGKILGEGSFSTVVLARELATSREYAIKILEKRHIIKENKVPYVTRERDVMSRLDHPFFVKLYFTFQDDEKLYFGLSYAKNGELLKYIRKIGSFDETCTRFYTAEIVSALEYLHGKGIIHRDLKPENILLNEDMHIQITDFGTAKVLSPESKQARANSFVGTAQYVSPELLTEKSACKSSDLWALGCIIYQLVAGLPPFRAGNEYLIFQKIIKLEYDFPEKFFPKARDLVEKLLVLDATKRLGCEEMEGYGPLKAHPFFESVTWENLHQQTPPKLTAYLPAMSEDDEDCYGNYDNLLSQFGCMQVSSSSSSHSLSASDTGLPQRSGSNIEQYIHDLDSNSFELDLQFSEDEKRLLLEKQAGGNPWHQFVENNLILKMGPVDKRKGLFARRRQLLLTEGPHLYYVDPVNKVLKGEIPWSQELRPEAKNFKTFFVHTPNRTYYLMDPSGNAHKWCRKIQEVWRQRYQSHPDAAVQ
Method: as §1, §2

[1] = system: HER2 and HER3 signaling in NCI-H1781 cells; test: HER2 and HER3 signaling in NCI-H1781 cells (immunoblot); type: cell-based; conditions: NCI-H1781 cells (HER2 kinase domain insertion); 15 min after drug
Method: Immunoblotting. Cells were grown in 6 well plates and treated according to the indicated conditions at which point the media was aspirated, cells were washed with 1 mL of cold PBS, which was then aspirated and the plates were frozen at −80° C. The frozen cells were thawed on the plates in a buffer containing 50 mM Tris pH 7.5, 150 mM NaCl, 1 mM EDTA, and 1% Triton X-100 supplemented with 1× phosphatase (PhoSTOP, Roche) and 1× protease (complete-mini tablets, Roche) inhibitors. Lysates were scraped, transferred to Eppendorf tubes, and cleared by centrifugation at 20,000×g for 20 min at 4° C. The clarified lysates were transferred to chilled, clean tubes, and normalized for protein concentration by Bradford (Bio-Rad). The normalized lysates were diluted with Laemmli loading buffer, and 10 μg of total protein was run on a 4-12% gradient gel (Invitrogen), which was then transferred to […] nitrocellulose (Bio-Rad) and analyzed using the indicated primary antibodies according to the manufacturer's recommendations. Primary antibodies were detected using IRDye secondary antibodies (Li-Cor) according to the manufacturer's recommendations and scanned on an Odyssey imager (Li-Cor). Scanned images were cropped and assembled in Adobe Illustrator 6.

Axl+ Ba/F3 cells = target: T2, Axl+ Ba/F3 cells (Homo sapiens, UniProt P30530); test: Ba/F3 proliferation assay, Axl+; type: cell-based; conditions: Table 4; ± S.D., n = 3; 48 h Cell Titer Glo; read-out: IC50, Axl
T2 sequence (P30530 1-894): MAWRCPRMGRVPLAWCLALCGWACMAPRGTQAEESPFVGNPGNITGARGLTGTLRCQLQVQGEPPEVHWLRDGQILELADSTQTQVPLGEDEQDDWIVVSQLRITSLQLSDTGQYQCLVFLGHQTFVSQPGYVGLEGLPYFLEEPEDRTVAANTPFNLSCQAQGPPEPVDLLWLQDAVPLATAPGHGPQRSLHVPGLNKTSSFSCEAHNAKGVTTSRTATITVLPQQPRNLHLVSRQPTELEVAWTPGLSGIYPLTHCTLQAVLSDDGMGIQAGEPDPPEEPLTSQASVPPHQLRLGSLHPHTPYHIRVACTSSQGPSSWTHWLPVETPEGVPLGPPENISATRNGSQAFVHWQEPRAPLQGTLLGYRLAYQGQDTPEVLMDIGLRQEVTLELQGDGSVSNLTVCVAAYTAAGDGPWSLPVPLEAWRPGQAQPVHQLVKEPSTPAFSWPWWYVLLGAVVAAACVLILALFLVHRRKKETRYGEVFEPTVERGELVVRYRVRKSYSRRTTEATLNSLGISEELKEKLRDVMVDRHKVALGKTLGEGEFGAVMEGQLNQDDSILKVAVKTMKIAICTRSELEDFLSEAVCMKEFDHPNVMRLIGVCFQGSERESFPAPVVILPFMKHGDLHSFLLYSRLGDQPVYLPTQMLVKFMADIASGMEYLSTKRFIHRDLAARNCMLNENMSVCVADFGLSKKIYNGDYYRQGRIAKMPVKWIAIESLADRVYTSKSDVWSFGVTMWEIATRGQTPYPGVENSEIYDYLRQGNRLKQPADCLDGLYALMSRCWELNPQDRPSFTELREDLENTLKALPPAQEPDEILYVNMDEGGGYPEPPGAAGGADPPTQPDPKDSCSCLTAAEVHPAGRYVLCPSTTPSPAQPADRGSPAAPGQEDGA
Method in brief: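 Ba/F3 cells transduced with Axl and selected for IL-3-independent growth. Cells combined with drug dilutions, and with IL-3 (10 ng/mL) or NRG (6.25 ng/mL) where needed, for 48 h at 37 °C. CellTiter-Glo read, normalized to DMSO, fitted with variable-slope log(inhibitor) regression.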

Chain of IGF1R (P08069 31-1367): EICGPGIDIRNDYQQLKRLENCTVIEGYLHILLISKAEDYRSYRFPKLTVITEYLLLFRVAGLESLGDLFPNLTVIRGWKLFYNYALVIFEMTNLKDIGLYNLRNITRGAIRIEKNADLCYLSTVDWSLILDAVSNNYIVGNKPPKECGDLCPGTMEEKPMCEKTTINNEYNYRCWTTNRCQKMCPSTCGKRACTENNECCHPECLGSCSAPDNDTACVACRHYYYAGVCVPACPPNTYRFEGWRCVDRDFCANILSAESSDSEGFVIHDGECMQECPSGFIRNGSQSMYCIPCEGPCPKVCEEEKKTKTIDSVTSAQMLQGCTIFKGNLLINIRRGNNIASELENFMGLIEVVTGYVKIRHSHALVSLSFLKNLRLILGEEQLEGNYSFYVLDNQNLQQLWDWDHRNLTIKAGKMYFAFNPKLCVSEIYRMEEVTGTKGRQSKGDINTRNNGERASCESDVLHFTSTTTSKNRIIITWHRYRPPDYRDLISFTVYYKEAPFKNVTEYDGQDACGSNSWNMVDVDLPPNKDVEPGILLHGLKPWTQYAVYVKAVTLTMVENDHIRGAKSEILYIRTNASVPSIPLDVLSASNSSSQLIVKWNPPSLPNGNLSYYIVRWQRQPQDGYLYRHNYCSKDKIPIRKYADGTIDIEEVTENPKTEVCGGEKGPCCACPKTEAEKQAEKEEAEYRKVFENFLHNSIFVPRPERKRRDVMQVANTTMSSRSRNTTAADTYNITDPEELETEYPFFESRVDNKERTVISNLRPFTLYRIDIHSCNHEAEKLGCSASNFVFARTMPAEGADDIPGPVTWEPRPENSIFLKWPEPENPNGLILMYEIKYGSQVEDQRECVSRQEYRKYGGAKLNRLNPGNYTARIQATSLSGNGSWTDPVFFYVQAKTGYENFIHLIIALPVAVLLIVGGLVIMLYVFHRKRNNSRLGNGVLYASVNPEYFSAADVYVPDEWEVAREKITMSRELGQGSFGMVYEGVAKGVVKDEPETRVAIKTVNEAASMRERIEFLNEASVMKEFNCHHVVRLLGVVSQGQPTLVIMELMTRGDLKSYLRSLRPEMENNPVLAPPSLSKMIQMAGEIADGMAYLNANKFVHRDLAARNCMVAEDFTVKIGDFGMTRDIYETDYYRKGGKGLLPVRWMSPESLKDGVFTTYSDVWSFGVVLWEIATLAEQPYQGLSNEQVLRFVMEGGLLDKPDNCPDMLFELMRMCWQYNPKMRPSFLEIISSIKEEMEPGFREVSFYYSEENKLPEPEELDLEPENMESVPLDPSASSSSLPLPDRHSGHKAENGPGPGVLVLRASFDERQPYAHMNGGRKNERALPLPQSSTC

`COc1ccc(-c2ccco2)cc1Nc1ncnc2[nH]nc(-c3ccco3)c12` [compound 2, 3-(furan-2-yl)-N-(5-(furan-2-yl)-2-methoxyphenyl)-1H-pyrazolo[3,4-d]pyrimidin-4-amine] gave an inhibition at 0.1 µM (IGF1R; compound at 100 nM) of 13.3%, an inhibition at 1 µM (IGF1R) of 53.3% and an inhibition at 0.1 µM (PDK1; compound at 100 nM) of 4.58%. It also gave an inhibition at 1 µM (PDK1) of 18.3%.

In the case of `COc1ccc(-c2ccoc2)cc1Nc1ncnc2[nH]cc(-c3cc[nH]n3)c12` [compound 3, N-(5-(furan-3-yl)-2-methoxyphenyl)-5-(1H-pyrazol-3-yl)-7H-pyrrolo[2,3-d]pyrimidin-4-amine], the inhibition at 1 µM (IGF1R) is reported as 46%, the inhibition at 1 µM (PDK1) is reported as 5% and the “inhibition of HER2/HER3 signaling” value [1] is reported as “rapidly and fully inhibited”. For the same compound, the GI50 (Axl+ Ba/F3 cells) was 1.17 ± 0.106 µM.

With `CS(=O)(=O)CCNCc1ccc(-c2ccc3ncnc(Nc4ccc(OCc5cccc(F)c5)c(Cl)c4)c3c2)o1` [lapatinib] the “inhibition of HER2/HER3 signaling” value [1] was “unable to fully inhibit signaling” and the GI50 (Axl+ Ba/F3 cells) was over 3.33 µM.
